Results from patent publication US8536342B2, “Process for producing thiabenzoazulene-propionic acid derivative” (Nippon Zoki Pharmaceutical Co., Ltd., priority 2009, dated 2013).

Experiments:
histamine H1 receptor = histamine H1 receptor (Homo sapiens, UniProt P35367); assay: antagonistic action to histamine H1 receptor
intracerebral receptor = biological target: T1, intracerebral receptor (Mus musculus, UniProt P70174); assay: intracerebral receptor binding test by oral administration to mice; type: in vivo
T1 construct: from tissue; host or cells: mouse brain
T1 sequence (P70174 whole entry): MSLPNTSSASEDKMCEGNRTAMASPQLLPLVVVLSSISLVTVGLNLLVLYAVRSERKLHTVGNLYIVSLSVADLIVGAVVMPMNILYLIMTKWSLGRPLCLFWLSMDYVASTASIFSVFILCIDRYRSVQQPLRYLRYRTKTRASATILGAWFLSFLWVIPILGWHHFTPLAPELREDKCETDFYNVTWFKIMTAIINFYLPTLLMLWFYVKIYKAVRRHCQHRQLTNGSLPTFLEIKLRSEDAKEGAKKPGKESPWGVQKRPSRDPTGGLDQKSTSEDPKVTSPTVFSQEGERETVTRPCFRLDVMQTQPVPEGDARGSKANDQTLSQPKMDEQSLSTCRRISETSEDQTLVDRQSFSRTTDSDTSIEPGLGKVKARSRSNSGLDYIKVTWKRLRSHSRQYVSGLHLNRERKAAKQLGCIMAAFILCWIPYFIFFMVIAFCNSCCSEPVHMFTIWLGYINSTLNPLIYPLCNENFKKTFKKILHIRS

Chain of histamine H1 receptor (P35367 whole entry, species assumed): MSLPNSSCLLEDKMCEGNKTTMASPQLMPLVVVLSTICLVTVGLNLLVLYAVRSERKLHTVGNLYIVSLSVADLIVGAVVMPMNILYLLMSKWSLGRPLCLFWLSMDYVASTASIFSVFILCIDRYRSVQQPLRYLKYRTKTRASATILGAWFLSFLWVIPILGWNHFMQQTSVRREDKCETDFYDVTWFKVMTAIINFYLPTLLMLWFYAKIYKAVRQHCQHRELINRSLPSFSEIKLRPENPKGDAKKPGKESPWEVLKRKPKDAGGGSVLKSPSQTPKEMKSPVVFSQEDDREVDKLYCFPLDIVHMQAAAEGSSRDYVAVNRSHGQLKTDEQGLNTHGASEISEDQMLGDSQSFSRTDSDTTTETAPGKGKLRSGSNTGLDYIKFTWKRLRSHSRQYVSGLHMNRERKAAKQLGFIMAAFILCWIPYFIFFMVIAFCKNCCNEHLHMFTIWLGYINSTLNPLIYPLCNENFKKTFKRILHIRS

| Structure (SMILES) | melting point | other results |
| --- | --- | --- |
| O=C(O)C=Cc1cc2c(s1)CCc1ccccc1C2=C1CCNCC1 [Compound 4, 3-(4-piperidin-4-ylidene-9,10-dihydro-4H-1-thiabenzo[f]azulen-2-yl)acrylic acid] | 269 to 272 °C (dec.) | – |
| CCOC(=O)C=Cc1cc2c(s1)CCc1ccccc1C2=C1CCN(C(=O)OCC)CC1 [Compound 8, ethyl 4-[2-(2-ethoxycarbonylvinyl)-9,10-dihydro-1-thiabenzo[f]azulen-4-ylidene]piperidine-1-carboxylate] | 90 to 93 °C | – |
| CCOC(=O)N1CCC(=C2c3ccccc3CCc3sc(C=O)cc32)CC1 [Compound 2, ethyl 4-(2-formyl-9,10-dihydro-1-thia-benzo[f]azulen-4-ylidene)piperidine-1-carboxylate] | 146 to 149 °C | – |
| CC(C)(C)OC(=O)N1CCC(=C2c3ccccc3CCc3sc(C=CC(=O)O)cc32)CC1 [Compound 6, 3-[4-(1-tert-butoxycarbonylpiperidin-4-ylidene)-9,10-dihydro-4H-1-thiabenzo[f]azulen-2-yl]acrylic acid] | 186 °C (dec.) | – |
| CN1CCC(=C2c3ccccc3CCc3sc(Br)cc32)CC1 [Compound 11, 4-(2-bromo-9,10-dihydro-1-thiabenzo[f]-azulen-4-ylidene)-1-methylpiperidine] | 141 to 142 °C | – |
| CC(C)(C)OC(=O)N1CCC(=C2c3ccccc3C=Cc3sc(CCC(=O)O)cc32)CC1 [Compound 7, 3-[4-(1-tert-butoxycarbonylpiperidin-4-ylidene)-4H-1-thiabenzo[f]azulen-2-yl]propionic acid] | 172 °C (dec.) | – |

More lines, main results first:

| melting point | Structure (SMILES) | other results |
| --- | --- | --- |
| 254 °C (dec.) | O=C(O)CCc1cc2c(s1)C=Cc1ccccc1C2=C1CCNCC1 [Compound 5, 3-(4-piperidin-4-ylidene-4H-1-thiabenzo-[f]azulen-2-yl)propionic acid] | antagonistic action to histamine H1 receptor (histamine H1 receptor): excellent antagonistic action; antihistaminic action (histamine H1 receptor): excellent antihistaminic action; intracerebral transmigration (intracerebral receptor): low intracerebral transmigration |
| 110 to 113 °C | CCOC(=O)N1CCC(=C2c3ccccc3CCc3sccc32)CC1 [Compound 1, ethyl 4-(9,10-dihydro-1-thiabenzo[f]-azulen-4-ylidene)piperidine-1-carboxylate] | – |
| 228 °C (dec.) | CCOC(=O)N1CCC(=C2c3ccccc3CCc3sc(C=CC(=O)O)cc32)CC1 [Compound 3, 3-[4-(1-ethoxycarbonylpiperidin-4-ylidene)-9,10-dihydro-4H-1-thiabenzo[f]azulen-2-yl]acrylic acid] | – |
